Reference: US4666897A, “Inhibition of mammalian collagenolytic enzymes by tetracyclines” (Research Foundation of State University, priority 1983, dated 1987)

Assays:
[1] = system: conventional diabetic rats; experiment: Gingival collagenolytic activity, alveolar bone loss, skin collagen and crevicular microflora in conventional streptozotocin-diabetic rats; type: in vivo, rat; settings: 20 mg per day by gavage
Description: Five month old (mean weight, 445g) male Sprague Dawley rats were made diabetic by I.V. injection of streptozotocin (70 mg/kg body weight), after a 12 hour fasting period, (as described by Golub, et al., Biochim. Biophys. Acta., 534, 73-81 (1978) and Golub, et al., Infect. Immun., 37, 1013-1020 (1982). Age matched uninjected rats served as controls. Some of the diabetic rats received the tetracycline, minocycline (20 mg. Minocin® per day; Lederle Laboratories, Pearl River, N.Y.), by gavage on a daily basis beginning 3 days after diabetes is induced. After a 25 day experimental period, blood samples were taken for glucose analysis, and subgingival plaque samples were taken for assessment of the microflora in the region (McNamara, et. al., Archs. Oral. Biol., 27, 217-223 (1982)). The animals were then sacrificed, gingival samples were taken for tissue culture and the jaw bones dissected.
Alveolar bone loss was assessed in the right and left mandibles of both the conventional and germfree rats (control and diabetic) using a modification of a previously described technique (Stralfors, et.al, Archs. Oral. Biol., 12, 1213-1216 (1967); Heijl, et. al., J. Periodontal Res., 15, 405-419 (1980)). The mandibles were defleshed (autoclaving followed by soaking in 2N NaOH for 2-3 h), dried, and the distance (expressed as units; 1 unit=0.05 mm) between the cementoenamel junction (CEJ) and the crest of the alveolar bone is measured in the long axis of the root surface at 10 specified sites on lingual surfaces of the 3 molar teeth (see Crawford, et.al., J. Periodontal Res., 13, 316-325 (1978)) using an eye-piece micrometer in a dissecting microscope (20× magnification).
The techniques used were those described by Schneir and Golub, (Streptozotocin: Fundamentals and Therapy (Ed. M. K. Agarwal, Elsevier/North-Holland Biomed Press, Chapter 12, pp 161-182, (1981)). […]

germfree diabetic rats = experiment: Gingival collagenolytic activity, bone loss and skin collagen in germ-free streptozotocin-diabetic rats; type: in vivo, rat
Description: At this time (6 weeks after purchase), diabetes was induced in some of the animals, as described above in a), and the control and diabetic animals maintained under germfree conditions for an additional 6 weeks prior to sacrifice. […] Blood and tissues were then obtained to assess gingival collagenolytic enzyme activity and the loss of skin collagen and bone. The results are set forth below and illustrated in FIG. II. Alveolar bone loss was assessed in the right and left mandibles of both the conventional and germfree rats (control and diabetic) using a modification of a previously described technique (Stralfors, et.al, Archs. Oral. Biol., 12, 1213-1216 (1967); Heijl, et. al., J. […] Periodontal Res., 13, 316-325 (1978)) using an eye-piece micrometer in a dissecting microscope (20× magnification). Because uncontrolled diabetes in the rat results in the massive resorption of skin collagen associated with increased collagenase activity in this tissue, the collagen content of entire skins from the germfree and from the conventional control and diabetic rats, including those treated with minocycline was measured. The techniques used were those described by […] and Golub, (Streptozotocin: Fundamentals and Therapy (Ed. M. K. Agarwal, Elsevier/North-Holland Biomed Press, Chapter 12, pp 161-182, (1981)). The techniques used to measure the collagenolytic enzyme activity of gingival tissue in culture, and in polymorphonuclear leucocytes (PMNLs), are those described by Golub, et. al., (J. Dent. Res., 57, 520-525 (197)8) and Nicoll, et. al., (Experimentia, 37, 315-317, (1981)) with minor modifications.

[2] = target: T1, rat PMNL collagenolytic activity (PMNL collagenase) (Rattus norvegicus, UniProt O88766); experiment: Rat PMNL collagenolytic activity in vitro (14C-collagen gel lysis); type: biochemical
T1 construct: An extract of PMNLs was prepared; from tissue; host or cells: extract of peritoneal exudate polymorphonuclear leucocytes of non-diabetic rats, elicited with glycogen
T1 sequence (O88766 102-466): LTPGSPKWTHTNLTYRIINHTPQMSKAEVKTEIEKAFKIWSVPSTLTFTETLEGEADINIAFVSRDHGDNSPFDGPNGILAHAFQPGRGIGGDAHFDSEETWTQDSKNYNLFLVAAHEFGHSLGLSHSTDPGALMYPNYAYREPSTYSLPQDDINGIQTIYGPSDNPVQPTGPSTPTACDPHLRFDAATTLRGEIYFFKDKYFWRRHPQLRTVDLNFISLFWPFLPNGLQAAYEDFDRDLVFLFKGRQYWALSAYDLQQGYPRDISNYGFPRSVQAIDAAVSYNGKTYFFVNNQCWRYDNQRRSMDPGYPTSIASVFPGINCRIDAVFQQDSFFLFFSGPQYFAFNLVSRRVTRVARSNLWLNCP
Description: To test the effect of physiologic levels of minocycline (the concentration in human serum, during a therapeutic regimen, is approximately 2 ug/ml; that in the gingival crevicular fluid is 4-5 times greater; Ciancio, et. al., 1980, J. Periodontol., 51, 531-534) on mammalian collagenolytic activity in vitro, peritonealexudate polymorphomuclear leucocytes (PMNLs) were collected from 15 mole (non-diabetic) rats 4 hours after I.P. injection of 0.15% glycogen. An extract of PMNLs was prepared, 250 μl aliquots of this extract were incubated with ^14 C-glycine labeled collagen fibrils for 14 hours at 35° C. (in the presence or absence of minocycline, or EDTA, or additional CaCl2), and collagenolytic activity was measured as described by Nicoll, et al., (Experientia., 37, 315-317).
The techniques used to measure the collagenolytic enzyme activity of gingival tissue in culture, and in polymorphonuclear leucocytes (PMNLs), are those described by Golub, et. al., (J. Dent. Res., 57, 520-525 (197)8) and Nicoll, et. al., (Experimentia, 37, 315-317, (1981)) with minor modifications.

[3] = system: gingival collagenolytic enzyme activity of diabetic rats; experiment: Collagenolytic enzyme activity in extracts of gingiva from diabetic rats given minocycline; type: in vivo, rat; settings: for Gingival Collagenolytic Activity (% C^14-Collagen Degraded): diabetes + oral daily drug
Description: Rats were made diabetic chemically with the agent streptozotocin. Some of the diabetic rats (half were administered minocycline orally on a daily basis) were killed 15 days, or 28 days, or 56 days after inducing diabetes and the gingiva were dissected, the tissues were extracted, and the extracts partially purified by ammonium sulfate precipitation. The partially purified enzyme preparation from the gingiva of a group of non-diabetic (control) rats, and the diabetic rats, was incubated at 37° C. in vitro with radiolabeled collagen fibrils to assess collagenolytic ennzyme activity.

[4] = during a therapeutic regimen; cited from earlier work

## CN(C)c1ccc(O)c2c1C[C@H]1C[C@H]3[C@H](N(C)C)C(O)=C(C(N)=O)C(=O)[C@@]3(O)C(O)=C1C2=O [minocycline, Minocycline]
[1]
  Gram-negative microflora in the gingival crevices: eliminated detectable signs
  alveolar bone loss in the interproximal region: completely reversed
[1]; 25 day experimental period
  reduction of gingival collagenolytic activity (tissue culture): 62%
Germfree diabetic rats; germ-free diabetic rats, 20 mg/day for the last 4 weeks, versus untreated diabetics
  increase of skin collagen levels: 45%
Germfree diabetic rats; germfree control, diabetic and minocycline-treated diabetic rats
  bone levels: no differences
Germfree diabetic rats; germfree diabetic rats, 20 mg/day by gavage for the last 4 weeks
  reduction of gingival collagenolytic activity (tissue culture): 70%
[2]; Table 1
  effect on PMNL collagenolytic (collagenase) activity, in words: almost complete inhibition
[2]; Table 1, PMNL extract + 5 μg/ml, control extract 85.5
  Collagenolytic Activity: % ^14 C-collagen gel lysed: 12.4%
[2]; Table 1, PMNL extract + 20 μg/ml + CaCl2 10 mM
  Collagenolytic Activity: % ^14 C-collagen gel lysed: 38.5%
[2]; Table 1, PMNL extract + 20 μg/ml + CaCl2 50 mM
  Collagenolytic Activity: % ^14 C-collagen gel lysed: 82.1%
[2]; Table 1, PMNL extract + 20 μg/ml, control extract 85.5
  Collagenolytic Activity: % ^14 C-collagen gel lysed: 8.3%
[2]; Table 2, PMNL extract (30 × 10^6 PMNLs per ml) + 20 ug/ml, control extract 39.0
  Collagenolytic Activity: % ^14 C-collagen gel lyzed: 4.0%
[3]; 15 days
  % Inhibition of Collagenolytic Activity by Minocycline: 42.5%
[3]; 28 days
  % Inhibition of Collagenolytic Activity by Minocycline: 72.7%
[3]; 56 days
  % Inhibition of Collagenolytic Activity by Minocycline: 77.2%
[3]; 15 days, untreated diabetic 50.4, control 9.1
  Gingival Collagenolytic Activity (% C^14-Collagen Degraded): 29.0%
[3]; 28 days, untreated diabetic 63.0, control 9.1
  Gingival Collagenolytic Activity (% C^14-Collagen Degraded): 17.2%
[3]; 56 days, untreated diabetic 47.8, control 9.1
  Gingival Collagenolytic Activity (% C^14-Collagen Degraded): 10.9%
[4]
  concentration in human serum: approximately 2 ug/ml
  concentration in the gingival crevicular fluid relative to serum: 4-5 times greater
